Patent US20110118313A1, “IDENTIFICATION OF A MOLECULAR SIGNATURE FOR ANTIPSYCHOTICS AND SERMS” (priority 2008, published 2011)

Key:
[1] = system: ARPE-19 cell line; test: Gene expression profiling (U133A2.0 microarrays) of drug-treated ARPE-19 cells; antipsychotic signature of lipid homeostasis genes; type: cell-based, human; conditions: ARPE-19, 10 μM, 24 hrs; for up-regulation of the top 20 probe sets of the antipsychotic group profile: FIG. 3
Text: The retinal pigment epithelia cell line, ARPE-19/HPV-16, was chosen to establish a database of drug profiles because it is from non-cancerous human origin, with a normal karyotype, and can easily be grown as monolayer in 96-well plates. H4 is a hypertriploid cell line from glioblastoma origin, which was used only for independent replication. Cell lines were propagated according to supplier's specifications (ATCC Manassas, Va.). Compounds were obtained from Sigma (St. Louis, Mo.) or Vanda Pharmaceuticals (Rockville, Md.). Cells were aliquoted to 96-well plates (˜2×10e5 cells/well) and incubated for 24 hrs prior to providing fresh media with a drug, or the drug vehicle (water, dimethyl sulfoxide, ethanol, methanol, or phosphate-buffered saline solution). Drugs were diluted 1000 fold in buffered Advanced D-MEM/F-12 culture medium (Invitrogen, Carlsbad, Calif.) containing non-essential amino acids and 110 mg/L sodium pyruvate. In these conditions, no significant changes of pH were expected, which was confirmed by the monitoring of the pH indicator present in the medium. A final 10 μM drug concentration was chosen because it is believed to fit in the range of physiological relevance, and has been used in other cell line studies (Ferro et al. 2006; Lamb et al. 2006). Microscopic inspection of each well was conducted at the end of the treatment to discard any instance where cells had morphological changes consistent with apoptosis, and to verify that the drug had not precipitated in the culture medium.
Cells were harvested 24 hrs after treatment and RNA extracted using the RNeasy 96 protocol (Qiagen, Valencia, Calif.). Gene expression for 22,238 probe sets of 12,490 genes was generated with U133A2.0 microarrays following the manufacture's instructions (Affymetrix, Santa Clara, Calif.). Antipsychotics were profiled in duplicate or triplicate, with multiple vehicle controls on each plate. A total of 708 microarrays were analysed including 74 for the 18 antipsychotics, 499 for the other 448 compounds, and 135 for vehicle controls.
Each drug treatment-vehicle control pair (treatment instance) was represented by a non-parametric rank-ordered list constructed as follows, similarly to the method described by Lamb and colleagues (Lamb et al. 2006). The raw scan data were first converted to average difference values using MAS 5.0 (Affymetrix). The average difference values of both treatment and control data were set to a minimum threshold of 50 if below 50. For each treatment instance, all probe sets were then ranked based on their amplitude, or level of expression relative to the vehicle control (or average of controls when more than one was used). Amplitude was defined as the ratio of expression (t−v)/[(t+v)/2] where t corresponds to treatment instance and v to vehicle instance.
Each drug group profile was created using our novel Weighted Influence Model, Rank of Ranks (WIMRR) method which underscores the rank of each probe set across the entire gene expression profile rather than the specific change in expression level. WIMRR takes the average rank of each probe set across all of the members of the group and then re-ranks the probe sets from smallest average rank to largest average rank.
A gene-set enrichment metric based on the Kolmogorov-Smirnov (KS) statistic was used in a similar fashion by Lamb and colleagues (Lamb et al. 2006). Specifically, for a given set of probes, the KS score gives a measure of how up (positive) or down (negative) the set of probes occurs within the profile of another treatment instance.

[2] = 2-3 weeks of antipsychotic treatment, schizophrenic patients; cited from earlier work
[3] = system: Saccharomyces cerevisiae heterozygotes; conditions: cited from earlier work
[4] = system: mouse striatum; conditions: cited from earlier work
[5] = women affected with schizophrenia; cited from earlier work
[6] = patients; cited from earlier work
[7] = rats; cited from earlier work
[8] = patients with bipolar disorder; cited from earlier work

With `CCc1c(C)[nH]c2c1C(=O)C(CN1CCOCC1)CC2` (centres unmarked) [Molindone] the “up-regulation of the top 20 probe sets of the antipsychotic group profile” value (“up-regulation” for short) [1] was “lowest effect”.

In the case of `O=C1CCc2ccc(OCCCCN3CCN(c4cccc(Cl)c4Cl)CC3)cc2N1` [aripiprazole], the “plasma levels of certain lipid classes (PE, PC, TG, LY)” value [2] is given as “minimal effect”.

In the case of `CN(C)CCCN1c2ccccc2Sc2ccc(Cl)cc21` [chlorpromazine], the “effect on genes involved in yeast fatty acid biosynthesis, sterol biosynthesis or phospholipid transport” value (“effect on genes involved” below) [3] is listed as “strong effect”.

With `CCN(CC)CCOc1ccc(C(=C(Cl)c2ccccc2)c2ccccc2)cc1` [clomiphene] the “effect on lipid homeostasis (gene expression signature)” value (“effect on lipid homeostasis” below) [1] was “alter lipid homeostasis”.

In the case of `OCCN1CCN(CCCN2c3ccccc3Sc3ccc(C(F)(F)F)cc32)CC1` [fluphenazine], the “up-regulation” value [1] was “stronger up-regulation”.

In the case of `O=C(CCCN1CCC(O)(c2ccc(Cl)cc2)CC1)c1ccc(F)cc1` [haloperidol], the “effect on genes involved” value [3] is given as “strong effect” and the “differential expression of genes involved in lipid metabolism” value [4] is given as “differential expression of genes involved in lipid metabolism”.

With `COc1cc(C(C)=O)ccc1OCCCN1CCC(c2noc3cc(F)ccc23)CC1` [iloperidone] the “up-regulation” value [1] was “stronger up-regulation”.

With `CN1CCCCC1CCN1c2ccccc2Sc2ccc([S+](C)[O-])cc21` (centres unmarked) [mesoridazine] the “up-regulation” value [1] was “lowest effect”.

In the case of `C[C@]12CC[C@@H]3c4ccc(O)cc4CC[C@H]3[C@@H]1CC[C@@H]2O` [oestradiol], the “symptoms of psychosis and cognitive functioning” value [5] is given as “improve”.

For `Cc1cc2c(s1)Nc1ccccc1N=C2N1CCN(C)CC1` [olanzapine], the “risk for weight gain and hyperlipidemia” value [6] is listed as “significant increased risk”.

With `OCCN1CCN(CCCN2c3ccccc3Sc3ccc(Cl)cc32)CC1` [perphenazine] the “up-regulation” value [1] was “stronger up-regulation”.

For `O=C(c1ccc(OCCN2CCCCC2)cc1)c1c(-c2ccc(O)cc2)sc2cc(O)ccc12` [raloxifene], the “effect on lipid homeostasis” value [1] was “alter lipid homeostasis”.

For `Cc1nc2n(c(=O)c1CCN1CCC(c3noc4cc(F)ccc34)CC1)CCCC2` [risperidone], the “effect on lipid homeostasis” value [1] is listed as “share a common gene expression signature”, the “over-expression of RNAs for the desaturase genes FADS1 and FADS2” value [1] is listed as “over-expression” and the “plasma levels of certain lipid classes (PE, PC, TG, LY)” value [2] is listed as “significant increases”. The “risk for weight gain and hyperlipidemia” value [6] was “much lower risk”.

In the case of `CC/C(=C(\c1ccccc1)c1ccc(OCCN(C)C)cc1)c1ccccc1` [tamoxifen], the “effect on lipid homeostasis” value [1] is given as “alter lipid homeostasis”, the “obesity induced by the antipsychotic sulpiride” value [7] is given as “prevent obesity” and the mania symptoms [8] is given as “reduce mania symptoms”.

For `CN1CCN(CCCN2c3ccccc3Sc3ccc(C(F)(F)F)cc32)CC1` [trifluoperazine], the “effect on genes involved” value [3] is listed as “strong effect”.

For `O=C1Cc2cc(CCN3CCN(c4nsc5ccccc45)CC3)c(Cl)cc2N1` [ziprasidone], the “effect on lipid homeostasis” value [1] is given as “share a common gene expression signature” and the “risk for weight gain and hyperlipidemia” value [6] is given as “much lower risk”.
